Assay [1] has as its target D2 receptor (Chlorocebus aethiops, UniProt P52702). The experiment in a line: dopamine D2 receptor binding assay (3H-YM 09151-2). The arrangement: species or system African Green monkey. To be noted: 0.5 nM 3H-YM 09151-2; COS cells with recombinantly produced D2 receptors; Table 2: rat striatal homogenates. The protocol:
(§1) Assays For D2 And D4 Receptor Binding Activity
(§2) Pellets of COS cells containing recombinantly produced D2 or D4 receptors from African Green monkey are used for the assays. A sample is homogenized in 100 volumes (w/vol) of 0.05 M Tris HCl buffer at 4° C. and pH 7.4 and then centrifuged at 30,000×g and resuspended and rehomogenized. The sample is again centrifuged at 30,000×g and the final tissue sample is frozen until use. The tissue is resuspended 1:20 (wt/vol) in 0.05 M Tris HCl buffer containing 100 mM NaCl.
(§3) Incubations are carried out at […] and contain 0.4 ml of tissue sample, 0.5 nM ^3 H-YM 09151-2(Nemonapride, cis-5-Chloro-2-methoxy-4-(methylamino)-N-(2-methyl-2-(phenylmethyl)-3-pyrrolidinyl)benzamide) and the compound of interest in a total incubation of 1.0 ml. Nonspecific binding is defined as that binding found in the presence of […] spiperone; without further additions, nonspecific binding is less than 20% of total binding. The binding characteristics of representative compounds of this invention for the D2 and D4 receptor subtypes are shown in Table 2 for rat striatal homogenates.

Assay [2] has as its target D4 receptor. The experiment in a line: dopamine D4 receptor binding assay (3H-YM 09151-2). Particulars: 0.5 nM 3H-YM 09151-2; COS cells with recombinantly produced D4 receptors; Table 2: rat striatal homogenates. More on the design: species or system African Green monkey. The protocol:
as §1, §2, §3

Among the data in patent publication US6166205A, “2-Aryl-4-(1-[4-heteroaryl]piperazin-1-yl)methylimidazoles: dopamine . D.sub4 receptor subtype ligands” (Neurogen Corporation, priority 1999, dated 2000) are Ki values, retold here.

Structures can show the parent of a compound that is named as a salt.

Sequence of D2 receptor (P52702 whole entry): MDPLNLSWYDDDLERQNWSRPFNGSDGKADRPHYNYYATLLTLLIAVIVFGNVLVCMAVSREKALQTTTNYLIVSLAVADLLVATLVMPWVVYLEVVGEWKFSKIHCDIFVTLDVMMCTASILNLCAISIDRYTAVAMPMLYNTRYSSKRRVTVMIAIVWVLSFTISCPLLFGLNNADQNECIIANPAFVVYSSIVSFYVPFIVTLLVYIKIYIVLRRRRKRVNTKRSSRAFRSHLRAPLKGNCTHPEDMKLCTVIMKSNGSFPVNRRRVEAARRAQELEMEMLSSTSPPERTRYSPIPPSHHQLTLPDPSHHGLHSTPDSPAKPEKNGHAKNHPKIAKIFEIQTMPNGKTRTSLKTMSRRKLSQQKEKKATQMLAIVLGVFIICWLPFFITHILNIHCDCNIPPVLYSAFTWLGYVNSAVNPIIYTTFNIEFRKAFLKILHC

What is called Ki is the dissociation constant of the complex between target and ligand, obtained from inhibition or displacement. Take `c1ccc(-c2ncc(CN3CCN(c4ccc5c(n4)CCCC5)CC3)[nH]2)cc1` [Compound 1a, (1-[(2-phenylimidazol-5-yl)methyl]-4-(2-5,6,7,8-tetrahydroquinolyl)piperazine hydrobromide]: the values for the Ki in assay [1] and in assay [2] were more than 1 µM and 0.014 µM, respectively.
On to `c1ccc(-c2ncc(CN3CCN(c4ccc5ccccc5n4)CC3)[nH]2)cc1` [Compound 2a, 1-[(2-phenylimidazol-5-yl)methyl]-4-(2-quinolyl)piperazine hydrobromide], for which the Ki came to 0.784 µM in assay [1] and 0.009 µM in assay [2].
For the molecule `Fc1ccccc1-c1ncc(CN2CCN(c3ccc4ccccc4n3)CC2)[nH]1` [Compound 3a, 1-{[2-(2-fluorophenyl)imidazol-5-yl]methyl}-4-(2-quinolyl)piperazine oxalate], the Ki in assay [1] came out at 0.978 µM; in assay [2], 0.017 µM.
For `c1ccc(-c2ncc(CN3CCN(c4ncc5ccccc5n4)CC3)[nH]2)cc1` [Compound 4a, 2-{4-[(2-phenylimidazol-5-yl)methyl]piperazinyl}quinazoline], the Ki in assay [1] turned out to be 2.68 µM.
As to `c1ccc(-c2ncc(CN3CCN(c4cnc5ccccc5n4)CC3)[nH]2)cc1` [Compound 5, 2-{4-[(2-phenylimidazol-5-yl)methyl]piperazinyl}quinoxaline], the Ki in assay [1] stood at 2.05 µM.
